# Measured values: patent US10307357B2, “Prebiotic oral care compositions containing an alkyl glycoside” (COLGATE-PALMOLIVE COMPANY, priority 2013, dated 2019)
# Assays:
# Experiment in all cases: Twenty-four hour optical density growth in BHI
# Format in all cases: cell-based
# Conditions in all cases: over 24 hours, control = 1
# Streptococcus sanguinis = test system: Streptococcus sanguinis
# Description: (§1) The extent of growth of the tested bacteria in response to selected glycosides (β-methyl-D-galactoside and α-methyl-D-galactoside) was investigated by setting up growth curves in a nutritionally rich medium (brain heart infusion broth (BHI), Oxoid), over 24 hours. Late exponential growth phase liquid cultures were prepared by transferring the respective bacterium from blood agar plates to BHI and overnight incubation at 37° C. in an anaerobic atmosphere for A. viscosus, V. parvula, F. nucleatum, P. gingivalis, P. intermedia, T. forsythia, A. naeslundii, and C. sputigena, and in a 5% CO2 environment for S. salivarius, S. sanguinis, S. mitis, A. actinomycetemcomitans, S. mutans, S. sobrinus and S. gordonii. Overnight cultures were transferred to BHI and adjusted to a concentration of 1×10^7 CFU/ml (colony forming units per ml) by measuring the optical density at 600 nm (OD600) (BioRad SmartSpec 3000). For each strain, 200 μl of the bacterial suspension was added to a 96-well plate containing 20 μl of the respective glycosides. Final concentrations of the glycosides were set to 5, 10, 20 and 25 μmol/ml. […] Plates were incubated as previously described. For each combination of bacterium/glycoside, and for each of their respective controls (i.e. the particular bacterium in the nutritionally rich medium with no glycoside), the optical density was measured at 630 nm (OD630) at 0 h and 24 h (Thermo Scientific Multiskan Ascent). Additionally, the OD630 for combinations of bacterium/glycosides grown in a 5% CO2 environment were also measured every hour between 0 h and 9 h. […] The experiment was carried out on three different days (thus providing 3 biological replicas) and on each day the experiment was carried out in quadruple (thus providing 4 technical replicas) for each combination of bacterium with glycoside and for each control. For each day and for each combination, the average (mean) of the values obtained (as detailed above) for the four technical replicas was calculated to provide a single value for each combination on each day. The values shown in Tables 5 to 6, below, are the average (mean) of the three single values obtained for each combination of bacterium with glycoside (α-Methyl-D-Galactoside=α-MDG; β-Methyl-D-Galactoside=β-MDG).
# Fusobacterium nucleatum = test system: Fusobacterium nucleatum
# Description: as §1
# Streptococcus mitis = test system: Streptococcus mitis
# Description: as §1
# Streptococcus mutans = test system: Streptococcus mutans
# Description: as §1
# Tannerella forsythia = test system: Tannerella forsythia
# Description: as §1
# Porphyromonas gingivalis = test system: Porphyromonas gingivalis
# Description: as §1
# Actinomyces viscosus = test system: Actinomyces viscosus
# Description: as §1
# [1] = test system: Aggregatibacter actinomycetemcomitans
# Description: as §1
# Actinomyces naeslundii = test system: Actinomyces naeslundii
# Description: as §1
# Streptococcus sobrinus = test system: Streptococcus sobrinus
# Description: as §1
# Streptococcus gordonii = test system: Streptococcus gordonii
# Description: as §1
# Streptococcus salivarius = test system: Streptococcus salivarius
# Description: as §1
# Capnocytophaga sputigena = test system: Capnocytophaga sputigena
# Description: as §1
# Prevotella intermedia = test system: Prevotella intermedia
# Description: as §1
# Veillonella parvula = test system: Veillonella parvula
# Description: as §1
structure (smiles),measurement,setting,value
CO[C@H]1O[C@H](CO)[C@H](O)[C@H](O)[C@H]1O [α-methyl-D-galactoside],maximal OD630 divided by control (extent of growth),Streptococcus sanguinis; 5 μmol/ml,0.9521
same,maximal OD630 divided by control (extent of growth),Streptococcus sanguinis; 10 μmol/ml,0.9343
same,maximal OD630 divided by control (extent of growth),Streptococcus sanguinis; 20 μmol/ml,0.8872
same,maximal OD630 divided by control (extent of growth),Streptococcus sanguinis; 25 μmol/ml,0.9294
same,maximal OD630 divided by control (extent of growth),Fusobacterium nucleatum; 5 μmol/ml,0.8598
same,maximal OD630 divided by control (extent of growth),Fusobacterium nucleatum; 10 μmol/ml,0.8398
same,maximal OD630 divided by control (extent of growth),Fusobacterium nucleatum; 20 μmol/ml,0.7917
same,maximal OD630 divided by control (extent of growth),Fusobacterium nucleatum; 25 μmol/ml,0.7921
same,maximal OD630 divided by control (extent of growth),Streptococcus mitis; 5 μmol/ml,0.9303
same,maximal OD630 divided by control (extent of growth),Streptococcus mitis; 10 μmol/ml,0.9337
same,maximal OD630 divided by control (extent of growth),Streptococcus mitis; 20 μmol/ml,0.8843
same,maximal OD630 divided by control (extent of growth),Streptococcus mitis; 25 μmol/ml,0.8855
same,maximal OD630 divided by control (extent of growth),Streptococcus mutans; 5 μmol/ml,0.9703
same,maximal OD630 divided by control (extent of growth),Streptococcus mutans; 10 μmol/ml,0.9003
same,maximal OD630 divided by control (extent of growth),Streptococcus mutans; 20 μmol/ml,0.4212
same,maximal OD630 divided by control (extent of growth),Streptococcus mutans; 25 μmol/ml,0.2492
same,maximal OD630 divided by control (extent of growth),Tannerella forsythia; 5 μmol/ml,0.9724
same,maximal OD630 divided by control (extent of growth),Tannerella forsythia; 10 μmol/ml,0.9898
same,maximal OD630 divided by control (extent of growth),Tannerella forsythia; 20 μmol/ml,0.9846
same,maximal OD630 divided by control (extent of growth),Tannerella forsythia; 25 μmol/ml,1.0112
same,maximal OD630 divided by control (extent of growth),Porphyromonas gingivalis; 5 μmol/ml,0.9298
same,maximal OD630 divided by control (extent of growth),Porphyromonas gingivalis; 10 μmol/ml,0.9747
same,maximal OD630 divided by control (extent of growth),Porphyromonas gingivalis; 20 μmol/ml,0.9132
same,maximal OD630 divided by control (extent of growth),Porphyromonas gingivalis; 25 μmol/ml,0.9353
same,maximal OD630 divided by control (extent of growth),Actinomyces viscosus; 5 μmol/ml,0.6181
same,maximal OD630 divided by control (extent of growth),Actinomyces viscosus; 10 μmol/ml,0.5756
same,maximal OD630 divided by control (extent of growth),Actinomyces viscosus; 20 μmol/ml,0.4433
same,maximal OD630 divided by control (extent of growth),Actinomyces viscosus; 25 μmol/ml,0.4453
same,maximal OD630 divided by control (extent of growth),[1]; 5 μmol/ml,0.7382
same,maximal OD630 divided by control (extent of growth),[1]; 10 μmol/ml,0.7398
same,maximal OD630 divided by control (extent of growth),[1]; 20 μmol/ml,0.7462
same,maximal OD630 divided by control (extent of growth),[1]; 25 μmol/ml,0.7395
same,maximal OD630 divided by control (extent of growth),Actinomyces naeslundii; 5 μmol/ml,0.9762
same,maximal OD630 divided by control (extent of growth),Actinomyces naeslundii; 10 μmol/ml,0.9994
same,maximal OD630 divided by control (extent of growth),Actinomyces naeslundii; 20 μmol/ml,0.9595
same,maximal OD630 divided by control (extent of growth),Actinomyces naeslundii; 25 μmol/ml,0.9481
same,maximal OD630 divided by control (extent of growth),Streptococcus sobrinus; 5 μmol/ml,0.9005
same,maximal OD630 divided by control (extent of growth),Streptococcus sobrinus; 10 μmol/ml,0.8975
same,maximal OD630 divided by control (extent of growth),Streptococcus sobrinus; 20 μmol/ml,0.8858
same,maximal OD630 divided by control (extent of growth),Streptococcus sobrinus; 25 μmol/ml,0.9052
same,maximal OD630 divided by control (extent of growth),Streptococcus gordonii; 5 μmol/ml,0.9997
same,maximal OD630 divided by control (extent of growth),Streptococcus gordonii; 10 μmol/ml,0.9966
same,maximal OD630 divided by control (extent of growth),Streptococcus gordonii; 20 μmol/ml,1.0089
same,maximal OD630 divided by control (extent of growth),Streptococcus gordonii; 25 μmol/ml,1.0255
same,maximal OD630 divided by control (extent of growth),Streptococcus salivarius; 5 μmol/ml,0.8965
same,maximal OD630 divided by control (extent of growth),Streptococcus salivarius; 10 μmol/ml,0.8910
same,maximal OD630 divided by control (extent of growth),Streptococcus salivarius; 20 μmol/ml,0.8640
same,maximal OD630 divided by control (extent of growth),Streptococcus salivarius; 25 μmol/ml,0.8725
same,maximal OD630 divided by control (extent of growth),Capnocytophaga sputigena; 5 μmol/ml,0.8698
same,maximal OD630 divided by control (extent of growth),Capnocytophaga sputigena; 10 μmol/ml,0.8897
same,maximal OD630 divided by control (extent of growth),Capnocytophaga sputigena; 20 μmol/ml,0.8728
same,maximal OD630 divided by control (extent of growth),Capnocytophaga sputigena; 25 μmol/ml,0.8809
same,maximal OD630 divided by control (extent of growth),Prevotella intermedia; 5 μmol/ml,0.9203
same,maximal OD630 divided by control (extent of growth),Prevotella intermedia; 10 μmol/ml,0.9043
same,maximal OD630 divided by control (extent of growth),Prevotella intermedia; 20 μmol/ml,0.8637
same,maximal OD630 divided by control (extent of growth),Prevotella intermedia; 25 μmol/ml,0.8498
same,maximal OD630 divided by control (extent of growth),Veillonella parvula; 5 μmol/ml,0.9160
same,maximal OD630 divided by control (extent of growth),Veillonella parvula; 10 μmol/ml,0.9528
same,maximal OD630 divided by control (extent of growth),Veillonella parvula; 20 μmol/ml,0.9141
same,maximal OD630 divided by control (extent of growth),Veillonella parvula; 25 μmol/ml,0.9326
